Article PMC5063977 (The Journal of Biological Chemistry, 2016)

Experiments:
[1] = biological target: T1, RAMP1-CLR (CGRP receptor) (Homo sapiens, UniProt O60894+Q16602); assay: S. cerevisiae growth assay, GPA1/Gαi chimera, RAMP1 + CLR; type: cell-based; conditions: percentage of yeast strain MMY11 (lacking GPA1); 20 h; mean ± S.E., n = 6
T1 construct: FLAG; expressed in transfected cells; host or cells: HEK-293 or HEK-293S cells, transient transfection, 1:1 RAMP:CLR
Procedure: (§1) FIGURE 3. […] Reporter gene activity was determined following 20 h of stimulation.
(§2) General yeast procedures were performed as described previously ([22], [24]). The human CLR was introduced into yeast cells under the control of the PGK promoter using a plasmid containing ura3 (pDT-PGK). The three human RAMPs were introduced into yeast under the control of the GAPDH promoter using plasmids containing leu2 (p425-GPD) ([25]). S. cerevisiae dual reporter strains expressing chimeras of yeast GPA1(1–467) (GPA1/Gα) with the five C-terminal amino acids of […] human G proteins representing Gαs, Gα16, Gαq, Gαo, Gαi1/2, Gαi3, Gαz, Gα12, Gα13, and Gα14 (MMY84–MMY93) were used in this study ([52]). […] Receptor signaling was measured using the yeast growth assay as described previously ([24]). […] A fluorescein signal was detected as an increase in fluorescence (excitation wavelength = 485 nm, emission wavelength = 535 nm) as a measure of growth. Different concentrations of ligand (0.01 nM–100 μM) were assayed using 96-well plates, and fluorescence was detected using a Tecan Infinite M200 microplate reader (Tecan Ultra Evolution, Reading, UK) or a Mithras LB 940 microplate reader (Berthold Technologies, Harpenden, UK) for 20 h. […]

RAMP3-CLR (AM2 receptor) = biological target: T2, RAMP3-CLR (AM2 receptor) (Homo sapiens, UniProt O60896+Q16602); assay: S. cerevisiae growth assay, GPA1/Gαi chimera, RAMP3 + CLR; type: cell-based; conditions: percentage of yeast strain MMY11 (lacking GPA1); 20 h; mean ± S.E., n = 7
T2 construct: FLAG; expressed in transfected cells; host or cells: HEK-293 or HEK-293S cells, transient transfection, 1:1 RAMP:CLR
T2 sequence (Q16602 23-461): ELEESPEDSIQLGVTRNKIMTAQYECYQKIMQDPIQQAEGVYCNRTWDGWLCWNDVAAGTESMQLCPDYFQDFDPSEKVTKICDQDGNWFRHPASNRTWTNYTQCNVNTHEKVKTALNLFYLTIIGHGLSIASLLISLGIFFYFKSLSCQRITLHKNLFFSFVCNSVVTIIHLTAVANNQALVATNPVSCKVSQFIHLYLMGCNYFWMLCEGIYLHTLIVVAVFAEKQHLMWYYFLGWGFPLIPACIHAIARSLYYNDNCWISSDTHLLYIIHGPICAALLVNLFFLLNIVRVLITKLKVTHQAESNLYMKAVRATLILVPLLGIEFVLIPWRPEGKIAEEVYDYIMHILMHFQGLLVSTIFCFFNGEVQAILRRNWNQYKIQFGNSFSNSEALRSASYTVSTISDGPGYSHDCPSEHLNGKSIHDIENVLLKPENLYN
T2 sequence (O60896 24-148): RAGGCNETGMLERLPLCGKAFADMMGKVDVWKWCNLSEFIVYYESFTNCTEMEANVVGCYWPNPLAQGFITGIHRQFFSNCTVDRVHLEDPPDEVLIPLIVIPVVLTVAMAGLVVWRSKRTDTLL
Procedure: as §1, §2

T1 sequence (Q16602 23-461): as the sequence (Q16602 23-461) above
T1 sequence (O60894 27-148): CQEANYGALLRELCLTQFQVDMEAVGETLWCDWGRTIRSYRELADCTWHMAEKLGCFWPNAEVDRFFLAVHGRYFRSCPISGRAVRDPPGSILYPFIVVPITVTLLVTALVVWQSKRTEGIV

Emax [1] | Emax (RAMP3-CLR (AM2 receptor)) | SMILES
41.5 ± 3.3% | 15.7 ± 2.1% | CSCC[C@H](NC(=O)[C@H](CC(C)C)NC(=O)[C@H](CCC(N)=O)NC(=O)[C@H](Cc1c[nH]c2ccccc12)NC(=O)[C@H](CC(C)C)NC(=O)[C@H](CCCNC(=N)N)NC(=O)[C@H](Cc1c[nH]cn1)NC(=O)[C@H](CO)NC(=O)[C@H](CC(C)C)NC(=O)[C@H](CC(N)=O)NC(=O)[C@H](CCC(N)=O)NC(=O)[C@@H](NC(=O)[C@H](CCC(N)=O)NC(=O)[C@@H]1CSSC[C@H](NC(=O)CNC(=O)[C@@H](NC(=O)[C@H](CCCNC(=N)N)NC(=O)[C@H](CC(C)C)NC(=O)[C@H](CC(C)C)NC(=O)[C@H](CCC(N)=O)NC(=O)[C@H](C)NC(=O)[C@H](CCC(N)=O)NC(=O)[C@@H](N)[C@@H](C)O)C(C)C)C(=O)N[C@@H](C(C)C)C(=O)N[C@@H](CC(C)C)C(=O)NCC(=O)N[C@@H]([C@@H](C)O)C(=O)N1)C(C)C)C(=O)NCC(=O)N1CCC[C@H]1C(=O)N[C@@H](C)C(=O)NCC(=O)N[C@@H](CCCNC(=N)N)C(=O)N[C@@H](CCC(N)=O)C(=O)N[C@@H](CC(=O)O)C(=O)N[C@@H](CO)C(=O)N[C@@H](C)C(=O)N1CCC[C@H]1C(=O)N[C@H](C(=O)N[C@@H](CC(=O)O)C(=O)N1CCC[C@H]1C(=O)N[C@@H](CO)C(=O)N[C@@H](CO)C(=O)N1CCC[C@H]1C(=O)N[C@@H](Cc1c[nH]cn1)C(=O)N[C@@H](CO)C(=O)N[C@@H](Cc1ccc(O)cc1)C(N)=O)C(C)C [AM2, adrenomedullin 2]
34.2 ± 3.7% | 26.7 ± 1.8% | CC[C@H](C)[C@H](NC(=O)[C@H](CCC(N)=O)NC(=O)[C@H](Cc1c[nH]cn1)NC(=O)[C@H](C)NC(=O)[C@H](CC(C)C)NC(=O)[C@H](CCCCN)NC(=O)[C@H](CCC(N)=O)NC(=O)[C@@H](NC(=O)[C@@H](NC(=O)[C@@H]1CSSC[C@H](NC(=O)CNC(=O)[C@H](Cc2ccccc2)NC(=O)[C@H](CO)NC(=O)[C@H](CCCNC(=N)N)NC(=O)[C@H](CC(C)C)NC(=O)CNC(=O)[C@H](CCC(N)=O)NC(=O)[C@H](Cc2ccccc2)NC(=O)[C@H](CC(N)=O)NC(=O)[C@H](CC(N)=O)NC(=O)[C@H](CCSC)NC(=O)[C@H](CO)NC(=O)[C@H](CCC(N)=O)NC(=O)[C@H](CCCNC(=N)N)NC(=O)[C@@H](N)Cc2ccc(O)cc2)C(=O)N[C@@H](CCCNC(=N)N)C(=O)N[C@@H](Cc2ccccc2)C(=O)NCC(=O)N[C@@H]([C@@H](C)O)C(=O)N1)[C@@H](C)O)C(C)C)C(=O)N[C@@H](Cc1ccc(O)cc1)C(=O)N[C@@H](CCC(N)=O)C(=O)N[C@@H](Cc1ccccc1)C(=O)N[C@H](C(=O)N[C@@H](CC(=O)O)C(=O)N[C@@H](CCCCN)C(=O)N[C@@H](CC(=O)O)C(=O)N[C@@H](CCCCN)C(=O)N[C@@H](CC(=O)O)C(=O)N[C@@H](CC(N)=O)C(=O)N[C@H](C(=O)N[C@@H](C)C(=O)N1CCC[C@H]1C(=O)N[C@@H](CCCNC(=N)N)C(=O)N[C@@H](CO)C(=O)N[C@@H](CCCCN)C(=O)N[C@H](C(=O)N[C@@H](CO)C(=O)N1CCC[C@H]1C(=O)N[C@@H](CCC(N)=O)C(=O)NCC(=O)N[C@@H](Cc1ccc(O)cc1)C(N)=O)[C@@H](C)CC)C(C)C)[C@@H](C)O [AM, adrenomedullin]
